Source: patent EP4242199A1 (priority 2022, dated 2023)
Like-named read-outs stand apart in the source and are kept apart here.

Legend:
[1] = system: Cercospora sojina; assay type: cell-based
[2] = system: Septoria tritici; assay: Microtest: activity against wheat leaf blotch pathogen Septoria tritici (SEPTTR); assay type: cell-based; conditions: relative growth vs active compound-free control (100%), 405 nm, 7 days after inoculation, 18°C
[3] = system: Qol (G143A) resistant isolate of Septoria tritici; assay: Microtest: activity against resistant isolate of Septoria tritici (SEPTTR res); assay type: cell-based; conditions: relative growth vs active compound-free control (100%), 405 nm, 7 days after inoculation, 18°C
[4] = system: Pyricularia oryzae; assay type: cell-based; conditions: PYRIOR, relative growth vs active compound-free control (100%), 405 nm, 7 days after inoculation, 18°C
[5] = system: Sclerotinia sclerotiorum; assay type: cell-based
[6] = system: Puccinia recondita; assay type: in vivo; conditions: for PUCCRT Disease level (%) K4 at 63 ppm: wheat, curative spray 4 days after inoculation, % diseased leaf area, untreated 85
[7] = system: Puccinia recondita; assay type: in vivo; conditions: for PUCCRT Disease level (%) P1 at 63 ppm: wheat, preventative spray 1 day before inoculation, % diseased leaf area, untreated 82
[8] = system: Leptosphaeria nodorum; assay: Microtest: activity against Leptosphaeria nodorum causing wheat leaf spots (LEPTNO); assay type: cell-based; conditions: relative growth vs active compound-free control (100%), 405 nm, 7 days after inoculation, 18°C
[9] = system: Qol (F129L) resistant isolate of Pyrenophora teres; assay: Microtest: activity against resistant isolate of net blotch pathogen Pyrenophora teres (PYRNTE res); assay type: cell-based; conditions: relative growth vs active compound-free control (100%), 405 nm, 7 days after inoculation, 18°C
[10] = system: Alternaria solani; assay type: cell-based
[11] = system: Qol (F129L) resistant isolate of Alternaria solani; assay: Microtest: activity against resistant isolate of Alternaria solani (ALTESO res); assay type: cell-based; conditions: relative growth vs active compound-free control (100%), 405 nm, 7 days after inoculation, 18°C
[12] = system: Phytophthora infestans; assay type: cell-based; conditions: PHYTIN, relative growth vs active compound-free control (100%), 405 nm, 7 days after inoculation, 18°C
[13] = system: Phakopsora pachyrhizi; assay: Greenhouse: protective control of soybean rust on soybeans caused by Phakopsora pachyrhizi (PHAKPA P2); assay type: in vivo; conditions: spray 2 days before inoculation, F129L strain, % diseased leaf area, untreated 97
[14] = system: Phakopsora pachyrhizi; assay: Greenhouse: protective control of soybean rust on soybeans caused by Phakopsora pachyrhizi (PHAKPA P6); assay type: in vivo; conditions: spray six days before inoculation, F129L strain, % diseased leaf area, untreated 74
[15] = system: Colletotrichum orbiculare; assay: Microtest: activity against anthracnose pathogen Colletotrichum orbiculare (COLLLA); assay type: cell-based; conditions: relative growth vs active compound-free control (100%), 405 nm, 7 days after inoculation, 18°C
[16] = ALTESO, relative growth vs active compound-free control (100%), 405 nm, 7 days after inoculation, 18°C
[17] = SCLESC, relative growth vs active compound-free control (100%), 405 nm, 7 days after inoculation, 18°C

Row | Compound | Growth (%) at 125 ppm [1] | Growth (%) at 125 ppm [2] | Growth (%) at 125 ppm [3] | Growth (%) at 125 ppm [4] | Growth (%) at 125 ppm [5] | PUCCRT Disease level (%) K4 at 16 ppm [6] | PUCCRT Disease level (%) P1 at 16 ppm [7] | Growth (%) at 125 ppm [8] | Growth (%) at 125 ppm [9] | Growth (%) at 125 ppm [10] | Growth (%) at 125 ppm [11] | Growth (%) at 125 ppm [12] | PHAKPA Disease level (%) P2 at 63 ppm [13] | PUCCRT Disease level (%) K4 at 63 ppm [6] | Growth (%) at 125 ppm [10, 16] | PUCCRT Disease level (%) P1 at 63 ppm [7] | Growth (%) at 125 ppm [5, 17] | PHAKPA Disease level (%) P6 at 63 ppm [14] | Growth (%) at 125 ppm [15]
1 | C/C(C#Cc1ccc(Cl)cc1)=N\OCc1ccccc1-n1nnn(C)c1=O [Compound 1, 1-[2-[[(E)-[3-(4-Chlorophenyl)-1-methyl-prop-2-ynylidene]amino]oxymethyl]phenyl]-4-methyl-tetrazol-5-one] | 0% | 5% | 13% | 0% | 11% |  |  |  |  |  |  |  |  |  |  |  |  |  | 
2 | COc1nn(C)c(=O)n1-c1ccccc1CO/N=C(\C)C#Cc1ccc(Cl)cc1 [Compound 2, 4-[2-[[(E)-[3-(4-Chlorophenyl)-1-methyl-prop-2-ynylidene]amino]oxymethyl]phenyl]-5-methoxy-2-methyl-1,2,4-triazol-3-one] |  |  |  | 16% |  | 30% | 11% |  |  |  |  |  |  |  |  |  |  |  | 
3 | COc1nn(C)c(=O)n1-c1ccccc1CO/N=C(\C)C#Cc1cccc(Cl)c1 [Compound 4, 4-[2-[[(E)-[3-(3-Chlorophenyl)-1-methyl-prop-2-ynylidene]amino]oxymethyl]phenyl]-5-methoxy-2-methyl-1,2,4-triazol-3-one] |  | 0% | 0% | 0% | 17% | 31% | 13% | 7% | 0% | 4% | 16% | 0% |  |  |  |  |  |  | 
4 | (E)-4-(3-Chlorophenyl)-N-[[2-[(E)-C-(1,4,2-dioxazin-3-yl)-N-methoxy-carbonimido-yl]phenyl]methoxy]but-3-yn-2-imine [Compound 8] |  | 0% |  | 0% |  |  |  | 2% |  |  |  |  | 7% | 28% | 2% | 0% | 19% | 12% | 0%
5 | (E)-4-(4-chlorophenyl)-N-[[2-[(E)-C-(1,4,2-dioxazin-3-yl)-N-methoxy-carbonimidoyl]-phenyl]methoxy]but-3-yn-2-imine [Compound 7] |  | 0% |  | 0% |  |  |  | 0% |  |  |  |  | 33% | 53% | 1% | 13% | 1% | 32% | 0%
6 | Ethyl N-[2-[[(E)-[3-(3-chlorophenyl)-1-methyl-prop-2-ynylidene]amino]oxymethyl]-phenyl]-N-methoxy-carbamate [Compound 6] |  | 0% |  | 0% |  |  |  | 0% | 0% |  |  |  | 11% | 50% | 0% | 7% | 17% | 13% | 0%
7 | Ethyl N-[2-[[(E)-[3-(4-chlorophenyl)-1-methyl-prop-2-ynylidene]amino]oxymethyl]-phenyl]-N-methoxy-carbamate [Compound 5] |  | 0% |  | 0% |  |  |  | 0% | 0% |  |  |  | 43% | 70% | 10% | 10% | 12% | 48% | 0%
